Consider 23 compounds from patent publication US7692014B2, “Inhibitors of the HIV integrase enzyme” (Pfizer, Inc., priority 2004, dated 2010).

Read-outs that look alike come from different tables or passages of the source.

This assay concerns the target T1, Full-length wild type HIV-1 integrase (SF1) (Human immunodeficiency virus type 1 group M subtype B, UniProt P04585).
T1 construct: made in house; host or cells: E. coli BL21 (DE3), pET24a vector
As to the kind of experiment: Integrase strand-transfer scintillation proximity assay. It counts as biochemical. The text has this: Integrase Strand-Transfer Scintillation Proximity Assay Oligonucleotides
The annealed product represents preprocessed viral ds-DNA derived from the LTR U5 sequence of the viral genome. A ds-DNA control to test for non-specific interactions was made using a 3′ di-deoxy derivative of oligonucleotide #1 annealed to oligonucleotide #2. The CA overhang at the 5′ end of the non-biotinylated strand of the ds-DNA was created artificially by using a complimentary DNA oligonucleotide shortened by 2 base pairs. This configuration eliminates the requisite 3′ processing step of the integrase enzyme prior to the strand-transfer mechanism.
Host ds-DNA was prepared as an unlabeled and [^3H]-thymidine labeled product from annealed oligonucleotide #3—5-[…]-3′ (SEQ ID NO: 3), and oligonucleotide #4—5′-[…]-3′ (SEQ ID NO: 4), both synthesized by TriLink BioTechnologies, Inc. (San Diego, Calif.). The annealed product had overhanging 3′ ends of poly(dA). […] The radiolabeled product was purified using a NENSORB cartridge and stored in stabilized aqueous solution (PerkinElmer).
Reagents: Streptavidin-coated polyvinyltoluene (PVT) SPA beads were purchased from Amersham Biosciences (Piscataway, N.J.). Cesium chloride was purchased from Shelton Scientific, Inc. (Shelton, Conn.). White, polystyrene, flat-bottom, non-binding surface, 96-well plates were purchased from Corning. All other buffer components were purchased from Sigma (St. Louis, Mo.) unless otherwise indicated. Enzyme Construction: Full-length wild type HIV-1 integrase (SF1) sequence (amino acids 1-288) was constructed in a pET24a vector (Novagen, Madison, Wis.). […] Enzyme Purification: Full length wild-type HIV Integrase was expressed in E.coli BL21 (DE3) cells and induced with 1 mM isopropyl-1 thio-β-D-galactopyranoside (IPTG) when cells reached an optical density between 0.8-1.0 at 600 nm. Cells were lysed by microfluidation in 50 mM HEPES pH 7.0, 75 mM NaCl, 5 mM DTT, 1 mM 4-(2-Aminoethyl)benzenesulfonylfluoride HCl (AEBSF). Lysate was then centrifuged 20 minutes at 11 k rpm in GSA rotor in Sorvall RC-5B at 4° C. Supernant was discarded and pellet resuspended in 50 mM HEPES pH 7.0, 750 mM NaCl, 5 mM DTT, 1 mM AEBSF and homogenized in a 40 mL Dounce homogenizer for 20 minutes on ice. Homogenate was then centrifuged 20 minutes at 11 k rpm in SS34 rotor in Sorvall RC-5B at 4° C. Supernant was discarded and pellet resuspended in 50 mM HEPES pH 7.0, 750 mM NaCl, 25 mM CHAPS, 5 mM DTT, 1 mM AEBSF. Preparation was then centrifuged 20 minutes at 11 k rpm in SS34 rotor in Sorvall RC-5B at 4° C.
Supernant was then diluted 1:1 with 50 mM HEPES pH 7.0, 25 mM CHAPS, 1 mM DTT, 1 mM AEBSF and loaded onto a Q-Sepharose column pre-equilibrated with 50 mM HEPES, pH 7.0, 375 mM NaCl, 25 mM CHAPS, 1 mM DTT, 1 mM AEBSF. The flow through peak was collected and NaCl diluted to 0.1 M with 50 mM HEPES pH 7.0, 25 mM CHAPS, 1 mM DTT, 0.5 mM AEBSF and loaded onto a SP-Sepharose column pre-equilibrated with 50 mM HEPES pH 7.0, 100 mM NaCl, 25 mM CHAPS, 1 mM DTT, 0.5 mM AEBSF. After washing the column with the equilibration buffer, a 100 to 400 mM NaCl gradient was run. The eluted integrase was concentrated and run on a S-300 gel diffusion column using 50 mM HEPES pH 7.0, 500 mM NaCl, 25 mM CHAPS, 1 mM DTT, 0.5 mM AEBSF. […] All columns were run in a 4° C. cold room.
Viral DNA Bead Preparation: Streptavidin-coated SPA beads were suspended to 20 mg/mL in 25 mM 3-morpholinopropanesulfonic acid (MOPS) (pH 7.2) and 1.0% NaN3.
(SPA uses beads or plates that emit light when radiolabelled molecules are held near them.)

The mark [1] stands for this setting: integrase strand-transfer SPA, read-out: IC50.

The term IC50 denotes the concentration at which inhibition is half-maximal. Turning to `O=c1c2ncc3c(ccn3Cc3ccc(F)cc3)c2ccn1O` [Example 1, 3-(4-Fluorobenzyl)-7-hydroxy-3,7-dihydro-6H-pyrrolo[2,3-c]-1,7-naphthyridin-6-one], the IC50 under setting [1] came to 20 nM.

Turning to `O=C1c2ncc3c(ccn3Cc3ccc(F)cc3)c2CCN1O` [Example 2, 3-(4-Fluorobenzyl)-7-hydroxy-3,7,8,9-tetrahydro-6H-pyrrolo[2,3-c]-1,7-naphthyridin-6-one], the IC50 under setting [1] is 30 nM.

Take `O=C1c2ncc3c(ccn3Cc3ccc(F)cc3)c2CCCN1O` [Example 3, 3-(4-Fluorobenzyl)-7-hydroxy-7,8,9,10-tetrahydropyrrolo[3′,2′:4,5]pyrido[2,3-c]azepin-6(3H)-one]: the half-inhibitory concentration (IC50) under setting [1] was 17 nM.

Regarding `CN(C)Cc1cn(Cc2ccc(F)cc2)c2cnc3c(=O)n(O)ccc3c12` [Example 4, 1-[(dimethylamino)methyl]-3-(4-fluorobenzyl)-7-hydroxy-3,7-dihydro-6H-pyrrolo[2,3-c]-1,7-naphthyridin-6-one], the concentration for half-maximal inhibition (IC50) under setting [1] was 8 nM.

`NC(=O)[C@@H]1CCCN1Cc1cn(Cc2ccc(F)cc2)c2cnc3c(=O)n(O)ccc3c12` [Example 5, 1-{[3-(4-fluorobenzyl)-7-hydroxy-6-oxo-6,7-dihydro-3H-pyrrolo[2,3-c]-1,7-naphthyridin-1-yl]methyl}-L-prolinamide] came in with a concentration for half-maximal inhibition (IC50) (IC50, integrase strand-transfer SPA) of 18 nM.

Take `O=C1CN(Cc2cn(Cc3ccc(F)cc3)c3cnc4c(=O)n(O)ccc4c23)CCN1` [Example 6, 3-(4-fluorobenzyl)-7-hydroxy-1-[(3-oxopiperazin-1-yl)methyl]-3,7-dihydro-6H-pyrrolo(2,3-c]-1,7-naphthyridin-6-one]: the IC50 under setting [1] worked out at 7 nM.

With `CN1CCN(Cc2cn(Cc3ccc(F)cc3)c3cnc4c(=O)n(O)ccc4c23)CC1` [Example 7, 3-(4-fluorobenzyl)-7-hydroxy-1-[(4-methylpiperazin-1-yl)methyl]-3,7-dihydro-6H-pyrrolo[2,3-c]-1,7-naphthyridin-6-one], the half-inhibitory concentration (IC50) under setting [1] came to 17 nM.

In the case of `CCN1CCN(Cc2cn(Cc3ccc(F)cc3)c3cnc4c(=O)n(O)ccc4c23)CC1` [Example 8, 1[(4-ethylpiperazin-1-yl)methyl]-3-(4-fluorobenzyl)-7-hydroxy-3,7-dihydro-6H-pyrrolo[2,3-c]-1,7-naphthyridin-6-one], the half-maximal inhibitory concentration (IC50) under setting [1] is 14 nM.

For the compound `O=c1c2ncc3c(c(CN4CCc5ccccc5C4)cn3Cc3ccc(F)cc3)c2ccn1O` [Example 10, 1-(3,4-dihydroisoquinolin-2(1H)-ylmethyl)-3-(4-fluorobenzyl)-7-hydroxy-3,7-dihydro-6H-pyrrolo[2,3-c]-1,7-naphthyridin-6-one], the IC50 under setting [1] worked out at 40 nM.

Turning to `CCCCCN(C)Cc1cn(Cc2ccc(F)cc2)c2cnc3c(=O)n(O)ccc3c12` [Example 11, 3-(4-fluorobenzyl)-7-hydroxy-1-{[methyl(pentyl)amino]methyl}-3,7-dihydro-6H-pyrrolo[2,3-c]-1,7-naphthyridin-6-one], the concentration for half-maximal inhibition (IC50) under setting [1] came out at 6 nM.

With `NC(=O)[C@H]1CCCN1Cc1cn(Cc2ccc(F)cc2)c2cnc3c(=O)n(O)ccc3c12` [Example 12, 1-{[3-(4-fluorobenzyl)-7-hydroxy-6-oxo-6,7-dihydro-3H-pyrrolo[2,3-c]-1,7-naphthyridin-1-yl]methyl)-D-prolinamide], the IC50 under setting [1] stood at 13 nM.

Consider `O=C1NCCC12CCN(Cc1cn(Cc3ccc(F)cc3)c3cnc4c(=O)n(O)ccc4c13)CC2` [Example 13, 3-(4-fluorobenzyl)-7-hydroxy-1-[(1-oxo-2,8-diazaspiro[4,5]dec-8-yl)methyl]-3,7-dihydro-6H-pyrrolo[2,3-c]-1,7-naphthyridin-6-one], for which the IC50 under setting [1] was 8 nM.

For the compound `CCN(Cc1cn(Cc2ccc(F)cc2)c2cnc3c(=O)n(O)ccc3c12)C1CCCCC1` [Example 14, 1-{[cyclohexyl(ethyl)amino]methyl}-3-(4-fluorobenzyl)-7-hydroxy-3,7-dihydro-6H-pyrrolo[2,3-c]-1,7-naphthyridin-6-one], under setting [1], the IC50 amounted to 13 nM.

In the case of `O=C(CN1CCN(Cc2cn(Cc3ccc(F)cc3)c3cnc4c(=O)n(O)ccc4c23)CC1)N1CCCC1` [Example 15, 3-(4-fluorobenzyl)-7-hydroxy-1-{[4-(2-oxo-2-pyrrolidin-1-ylethyl)piperazin-1-yl]methyl}-3,7-dihydro-6H-pyrrolo[2,3-c]-1,7-naphthyridin-6-one], the concentration for half-maximal inhibition (IC50) under setting [1] is 5 nM.

In the case of `CN(CCc1ccccn1)Cc1cn(Cc2ccc(F)cc2)c2cnc3c(=O)n(O)ccc3c12` [Example 16, 3-(4-fluorobenzyl)-7-hydroxy-1-{[methyl (2-pyridin-2-ylethyl)amino]methyl}-3,7-dihydro-6H-pyrrolo[2,3-c]-1,7-naphthyridin-6-one], the IC50 under setting [1] is 6 nM.

Turning to `O=C1CCCN1CC1(O)CCN(Cc2cn(Cc3ccc(F)cc3)c3cnc4c(=O)n(O)ccc4c23)CC1` [Example 18, 3-(4-fluorobenzyl)-7-hydroxy-1-({4-hydroxy-4-[(2-oxopyrrolidin-1-yl)methyl]piperidin-1-yl}methyl)-3,7-dihydro-6H-pyrrolo[2,3-c]-1,7-naphthyridin-6-one], the IC50 under setting [1] came to 11 nM.

In the case of `O=C1CCN(Cc2cn(Cc3ccc(F)cc3)c3cnc4c(=O)n(O)ccc4c23)CCN1` [Example 19, 3-(4-fluorobenzyl)-7-hydroxy-1-[(5-oxo-1,4-diazepan-1-yl)methyl]-3,7-dihydro-6H-pyrrolo[2,3-c]-1,7-naphthyridin-6-one], the IC50 under setting [1] turned out to be 5 nM.

As for `NC(=O)[C@@H]1CCCN1S(=O)(=O)c1cn(Cc2ccc(F)cc2)c2cnc3c(=O)n(O)ccc3c12` [Example 20, 1-{[3-(4-fluorobenzyl)-7-hydroxy-6-oxo-6,7-dihydro-3H-pyrrolo[2,3-c]-1,7-naphthyridin-1-yl]sulfonyl)-L-prolinamide], the half-maximal inhibitory concentration (IC50) under setting [1] was determined as 9 nM.

With `O=c1c2ncc3c(c(S(=O)(=O)NCCc4c[nH]c5ccccc45)cn3Cc3ccc(F)cc3)c2ccn1O` [Example 21, 3-(4-fluorobenzyl)-7-hydroxy-N-{2-(1H-indol-3-yl)ethyl]-6-oxo-6,7-dihydro-3H-pyrrolo[2,3-c]-1,7-naphthyridine-1-sulfonamide], under setting [1], the IC50 came to 46 nM.

For `O=C1CN(S(=O)(=O)c2cn(Cc3ccc(F)cc3)c3cnc4c(=O)n(O)ccc4c23)CCN1` [Example 22, 3-(4-fluorobenzyl)-7-hydroxy-1-[(3-oxopiperazin-1-yl)sulfonyl]-3,7-dihydro-6H-pyrrolo[2,3-c]-1,7-naphthyridin-6-one], the 50% inhibitory concentration (IC50) under setting [1] amounted to 6 nM.

On to `CN(C)S(=O)(=O)c1cn(Cc2ccc(F)cc2)c2cnc3c(=O)n(O)ccc3c12` [Example 23, 3-(4-fluorobenzyl)-7-hydroxy-N,N-dimethyl-6-oxo-6,7-dihydro-3H-pyrrolo[2,3-c]-1-naphthyridine-1-sulfonamide], for which, under setting [1], the half-maximal inhibitory concentration (IC50) is 10 nM.

With `O=c1c2ncc3c(c(S(=O)(=O)NCC(F)(F)F)cn3Cc3ccc(F)cc3)c2ccn1O` [Example 24, 3-(4-fluorobenzyl)-7-hydroxy-6-oxo-N-(2,2,2-trifluoroethyl)-6,7-dihydro-3H-pyrrolo[2,3-c]-1,7-naphthyridine-1-sulfonamide], the IC50 under setting [1] is 5 nM.

`O=c1c2ncc3c(c(S(=O)(=O)NCc4ccc(F)cc4)cn3Cc3ccc(F)cc3)c2ccn1O` [Example 25, N,3-bis(4-fluorobenzyl)-7-hydroxy-6-axo-6,7-dihydro-3H-pyrrolo[2,3-c]-1,7-naphthyridine-1-sulfonamide]: the half-inhibitory concentration (IC50) under setting [1] was found to be 35 nM.
